Laboratory results taken from paper PMC7440915, “Discovery of surrogate agonists for visceral fat Treg cells that modulate metabolic indices in vivo” (eLife, 2020).
Where no end group is shown, it is not given here.

How the values were obtained:
[1] = tested on: vTreg53 TCR (transduced Jurkat T cells); test: CD69/CD25 up-regulation on vTreg53 TCR transduced Jurkat T cells with peptide-pulsed K562-A^b cells; format: cell-based, Homo sapiens (cells); murine TCR
Procedure: (§1) Figure 3. Identification of robust vTreg53 TCR agonists. Single-point mutants based on the Fat7 (A) or Fat15 (B) peptides were used to stimulate Fat-TCR transduced Jurkat T cells. Data shown are mean fluorescence intensity for CD69 up-regulation following overnight stimulation with the indicated peptides at 100 µM. (C) Potent SPs based on Fat15. Single-residue mutations from the Fat15 are shown in red. Anchor positions are shown in grey and potential TCR-facing positions are shown in green. A peptide titration of single- and double-point mutants from the Fat15 SP show up to ~4- (D; CD69) or ~8 fold (E; CD25) increase in Emax. (F) Surface plasmon resonance for Fat7, Fat15, Fat1562 and Fat2564 was used to determine the pMHC/Fat TCR affinity. All biotinylated pMHC were purified by SEC and immobilized in a streptavidin-coated SPR sensor chip from 200 up to 600 RU. Data are mean ± SD from n = 2 (A, D, E) or 3 (B) biological replicates from 1 representative of 3 independent experiments. Data shown in (F) is representative of 2 independent experiments. Figure 3—figure supplement 1. In vitro peptide stimulation of the vTreg53 TCR cells. (A) Expression of wild-type Ab MHC in stably transduced K562 cells. (B) Expression of vTreg53 TCR in stably transduced Jurkat T cells (TCRαβ-/-). (C) Fraction of CD25+/CD69+ cells following overnight stimulation with Fat mimotopes at the indicated concentrations. (D) Peptide-A^b - streptavidin PE (pAb -SAPE) titration of vTreg53 transduced Jurkat T cells. Cells were stained with 250 nM of pA^b-SAPE tetramer for 1 hr.
Cell lines were kept in a humidified incubator at 37°C with 5% CO2 unless otherwise denoted. Jurkat T cells (derived from acute T cell leukemia ATCC TIB-152) and K562 cells (ATCC CCL-243) were cultured in RPMI supplemented with 2 mM glutamax (Invitrogen), 10% FBS (Sigma),10 mM HEPES pH 8.0 (ThermoFisher), 1 mM Sodium Pyruvate (Gibco) and 50 U/ml penicillin and streptomycin (ThermoFisher). Validation of T cell lines was performed by staining with known markers pre- and post- transfection or transduction. HEK293T (Lenti-X; Takara Bio USA, #632180) cells (female derived kidney cell line) were grown in DMEM complete media (ThermoFisher) supplemented with 10% FBS, 2 mM L-glutamine, and 50 U/ml of penicillin and streptomycin. Cells were tested for mycoplasma contamination using the MycoAlert Mycoplasma Detection kit (Lonza) and found to be mycoplasma-negative. For peptide assays, Jurkat T cells were rested overnight or for 2–3 hr in fresh RPMI complete. Cells were co-cultured for 16 to 48 hr with surrogate APCs: K562 transduced with A^b. After overnight incubation, cells were washed in MACS buffer and stained with anti-TCR, A^b, CD69 and CD25. EBY100 yeast cells were cultured in sterile filtered standard YPD (Bacto Peptone, glucose and yeast extract). Transformed yeast were grown in SDCAA (yeast nitrogen base, casamino acids -ADE, -URA, -TRP, D-glucose and buffered to pH 4.5 using sodium citrate and citric acid monohydrate) and induced in SGCAA where galactose replaces D-glucose. EBY100 cells are grown at 30°C when cultured in SDCAA, or at 20°C when cultured in SGCAA at atmospheric CO2 in an orbital shaker set to an agitation speed of 250 rpm.

vTreg53 (Fat) TCR = test: Surface plasmon resonance, pMHC/Fat TCR affinity; format: binding, murine; settings: 25°C
Procedure: as §1
High Five cells (Tni; Expression Systems) were grown in Insect X-press media (Lonza) or ESF 921 media (Expression Systems) with a final concentration of 10 mg/L of gentamicin sulfate (ThermoFisher) at 27°C at atmospheric CO2. SF9 cells are grown in SF900-III or -II serum-free media (ThermoFisher) with 10% FBS and final concentration 10 mg/L of gentamicin sulfate and 2 mM glutamax at 27°C at atmospheric CO2. P1 or P2 virus was used to infect volumes of 1–3 L of Hi5 cells at ∼2 × 10^6 cells/ml. Supernatant was harvested 2–3 days post-infection and spun down at 8000 rpm for 15 min. The supernatant containing expressed protein was treated to 100 mM Tris pH 8.0, 1 mM NiCl2, and 5 mM CaCl2 to precipitate contaminants. The supernatant and precipitate mixture was spun down at 8000 rpm for 20 min at 4°C to remove precipitate. The supernatant was incubated with Ni-NTA resin (QIAGEN) for >3 hr at room temperature. Ni-NTA beads were collected and washed in a Buchner funnel with 20 mM imidazole in 1 x HBS pH 7.2 and eluted with 200 mM imidazole in 1x HBS pH 7.2. Protein was concentrated in a 10 kDa filter (Millipore, UFC903024) to ~1 mL. When appropriate, protein was biotinylated with BirA ligase, 100 μM biotin, 40 mM Bicine pH 8.3, 10 mM ATP, and 10 mM Magnesium Acetate at 4°C overnight. All proteins were further purified by size-exclusion chromatography using Superdex Increase S200 or S75, as appropriate (GE Healthcare). All proteins for in vivo studies were cleared of endotoxin. Final endotoxin levels were determined using a chromogenic endotoxin quantitation kit (Thermo Fisher) and never greater than 1 Endotoxin Unit/mg of purified protein.
A GE Biacore T100 was used to measure the KD by equilibrium methods. Approximately 200 resonance units (RU) of human CD45, PD-1 or mouse PD-1 was captured on a SA-chip (GE Healthcare), including a reference channel of an unrelated protein. SPR runs were performed in HBS-P+ (GE Healthcare). All measurements were made with 2-fold serial dilutions using 45–60 s association (at 30 μl/min) followed by >240 s dissociation (30 μl/min) at 25°C. Regeneration was performed using HBS-P+, 2 M MgCl2 or 0.1 M Glycine, pH 3.1 for 15–20 s at 50 μl/min. Measurement of titrations at equilibrium were used to determine the KD using Biacore Analysis Software (GE Healthcare). All measurements were repeated twice.

## TMYKNPRPVAATG [Fat15]
[1]; overnight stimulation, screen at 100 µM
  CD69 up-regulation: able to up-regulate CD69 expression
[1]; peptide titration, CD69 (Figure 3D), overnight, mean ± SD from n = 2 biological replicates, 1 representative of 3 experiments
  EC50: 40.7 µM
vTreg53 (Fat) TCR; Biacore T100, biotinylated pMHC immobilized on SA chip 200 to 600 RU, HBS-P+, equilibrium, representative of 2 experiments
  Kd: 32.8 µM
vTreg53 (Fat) TCR; SPR
  koff: fast kon and koff
  kon: fast kon
